Experimental data as given in US12162867B2, “Inhibitors of RNA helicase DHX9 and uses thereof” (ACCENT THERAPEUTICS, INC., priority 2022, dated 2024).
pEC50: −log10 of the molar value.

Each compound was assayed on circBRIP1 in HCT116 cells (assay: DHX9 circBRIP1 cellular target engagement TaqMan Multiplex assay (qPCR)). Settings: Homo sapiens, HCT-116, 72 h, circBRIP1, HCT116 cells, 72 hours; Taqman assay (marked *); read-out: DHX9 Cellular Target Engagement EC50.
Assay type: cell-based
For `Cc1cc(F)cnc1-c1cc(C(=O)Nc2cc(Cl)cc(NS(C)(=O)=O)c2)sc1C` [Example 348], the pEC50 was 6.64.
With `CCS(=O)(=O)Nc1cc(Cl)cc(NC(=O)c2cc(-c3ncc(F)cc3C)c(C)s2)c1` [Example 350] the pEC50 was 6.59.
In the case of `CCS(=O)(=O)Nc1cc(Cl)cc(NC(=O)c2cc(-c3ncc(F)cc3Cl)c(C)s2)c1` [Example 355], the pEC50 was 6.44.
`Cc1sc(C(=O)Nc2cc(Cl)cc(NS(C)(=O)=O)c2)cc1-c1ncc(C(F)(F)F)cn1` [Example 357] showed a pEC50 of 6.92.
`Cc1sc(C(=O)Nc2cc(Cl)cc(NS(C)(=O)=O)c2)cc1-c1ncc(F)cc1Cl` [Example 359] was tested, and the pEC50 was 6.89.
`Cc1sc(C(=O)Nc2cc(Cl)cc(NS(C)(=O)=O)c2)cc1-c1c(F)cncc1F` [Example 362] gave a pEC50 of 6.91.
`Cn1cc(C(=O)Nc2cc(Cl)cc(NS(C)(=O)=O)c2)cc1-c1ncc(F)cc1OC(F)F` [Example 363] gave a pEC50 of 6.77.
In the case of `COc1cnc(-c2cc(C(=O)Nc3cc(Cl)cc(NS(C)(=O)=O)c3)sc2C)c(Cl)c1` [Example 364], the pEC50 was 6.41.
For `CCS(=O)(=O)Nc1cc(Cl)cc(NC(=O)c2cc(-c3ncc(C(F)(F)F)cn3)c(C)s2)c1` [Example 366], the pEC50 was 6.89.
In the case of `Cc1sc(C(=O)Nc2cc(Cl)cc(NS(C)(=O)=O)c2)cc1-c1ncc(C(F)(F)F)cc1C#N` [Example 367], the pEC50 was 6.66.
Work on `Cc1sc(C(=O)Nc2cc(Cl)cc(NS(C)(=O)=O)c2)cc1-c1ncc(C(F)(F)F)cc1F` [Example 368] yielded a pEC50 of 6.51.
Compound `CS(=O)(=O)Nc1cc(Cl)cc(NC(=O)c2cc(-c3ccc(C(F)(F)F)cn3)cs2)c1` [Example 370] has a pEC50 of 6.77.
`CS(=O)(=O)Nc1cc(Cl)cc(NC(=O)c2cc(-c3ncc(C(F)(F)F)cc3F)cs2)c1` [Example 371] was tested, and the pEC50 was 6.51.
Compound `CCCS(=O)(=O)Nc1cc(Cl)cc(NC(=O)c2cc(-c3ncccc3C)cs2)c1` [Example 372] has a pEC50 of 5.67.
For `Cc1cccnc1-c1csc(C(=O)Nc2cc(Cl)cc(NS(=O)(=O)C(C)C)c2)c1` [Example 373], the pEC50 was 6.30.
`Cc1cccnc1-c1csc(C(=O)Nc2cc(Cl)cc(N(C)S(C)(=O)=O)c2)c1` [Example 374] showed a pEC50 of less than 5.00.
`Cc1sc(C(=O)Nc2cc(Cl)cc(NS(C)(=O)=O)c2)cc1-c1ncc(C#N)cc1F` [Example 375] was tested, and the pEC50 was 6.17.
In the case of `Cc1sc(C(=O)Nc2cc(Cl)cc(NS(C)(=O)=O)c2)cc1-c1c(F)cc(F)cc1F` [Example 378], the pEC50 was 6.44.
`Cc1cccnc1-c1ccc(C(=O)Nc2cc(Cl)cc(NS(C)(=O)=O)c2)s1` [Example 386] gave a pEC50 of 5.71.

Same assay, conditions: Homo sapiens, HCT-116, circBRIP1, HCT116 cells; * Taqman assay was used; read-out: DHX9 Cellular Target Engagement EC50
`Cc1cc(C(=O)Nc2cc(Cl)cc(NS(C)(=O)=O)c2)cn1-c1ncc(N2CCCC2=O)cn1` [Example 401] showed a pEC50 of 6.87.
For `Cc1cc(C(=O)Nc2cc(Cl)cc(NS(C)(=O)=O)c2)cn1-c1ncc(N2CC(F)(F)C2)cc1Cl` [Example 406], the pEC50 was 6.79.
`Cc1cc(C(=O)Nc2cc(Cl)cc(NS(C)(=O)=O)c2)cn1-c1ncc(N2CC(F)(F)C2)cc1C(F)(F)F` [Example 407] gave a pEC50 of 6.29.
Compound `Cc1cc(C(=O)Nc2cc(Cl)cc(NS(C)(=O)=O)c2)cn1-c1ncc(N2CCC(F)(F)C2)cn1` [Example 409] has a pEC50 of 6.75.
Compound `Cc1cc(C(=O)Nc2cc(Cl)cc(NS(C)(=O)=O)c2)cn1-c1ncc(N2CCC3(C2)CC3(F)F)cc1F` (stereo not drawn) [Example 414] has a pEC50 of 6.89.
Compound `Cc1cc(C(=O)Nc2cc(Cl)cc(NS(C)(=O)=O)c2)cn1-c1ccc(N2CCOC2=O)cn1` [Example 416] has a pEC50 of 6.88.
`Cc1cc(C(=O)Nc2cc(Cl)cc(NS(C)(=O)=O)c2)cn1-c1ncc(N2CCOC2=O)cn1` [Example 417] showed a pEC50 of 6.65.
`Cc1cc(N2CC(F)(F)C2)cnc1-n1cc(C(=O)Nc2cc(Cl)cc(NS(C)(=O)=O)c2)cc1C` [Example 419] gave a pEC50 of 6.92.
In the case of `Cc1cc(C(=O)Nc2cc(Cl)cc(NS(C)(=O)=O)c2)cn1-c1ncc(F)cc1F` [Example 444], the pEC50 was 6.80.
Work on `CCS(=O)(=O)Nc1cc(Cl)cc(NC(=O)c2cc(C)n(-c3ncc(F)cc3F)c2)c1` [Example 445] yielded a pEC50 of 6.50.
Work on `CCS(=O)(=O)Nc1cc(Cl)cc(NC(=O)c2cc(C)n(-c3ncc(F)cc3Cl)c2)c1` [Example 446] yielded a pEC50 of 6.02.
With `CS(=O)(=O)Nc1cc(Cl)cc(NC(=O)c2cc(-c3ncc(F)cn3)c(Cl)s2)c1` [Example 450] the pEC50 was 6.58.
In the case of `CC(C)Oc1cnc(-c2csc(C(=O)Nc3cc(Cl)cc(NS(C)(=O)=O)c3)c2)c(F)c1` [Example 458], the pEC50 was 6.70.
In the case of `Cc1cc(N2CC(F)(F)C2)cnc1-c1cc(C(=O)Nc2cc(Cl)cc(NS(C)(=O)=O)c2)cn1C` [Example 461], the pEC50 was 6.80.
`Cc1sc(C(=O)Nc2cc(Cl)cc(NS(C)(=O)=O)c2)cc1-c1ncc(N2CCC3(CC2)CC3)cc1F` [Example 467] was tested, and the pEC50 was 6.79.
`Cn1cc(C(=O)Nc2cc(Cl)cc(NS(C)(=O)=O)c2)cc1-c1ncc(N2CCC3(CC2)CC3)cc1F` [Example 468] gave a pEC50 of 6.57.
`Cn1cc(C(=O)Nc2cc(Cl)cc(NS(C)(=O)=O)c2)cc1-c1ncc(N2CCC(C(F)(F)F)CC2)cc1F` [Example 472] was tested, and the pEC50 was 6.90.
`Cc1sc(C(=O)Nc2cc(Cl)cc(NS(C)(=O)=O)c2)cc1-c1ncc(N2CCC(C(F)(F)F)CC2)cc1F` [Example 481] gave a pEC50 of 6.89.
`CS(=O)(=O)Nc1cc(Cl)cc(NC(=O)c2cc(-c3ccc(N4CC(F)(F)C4)cn3)cs2)c1` [Example 487] showed a pEC50 of 6.18.
`CS(=O)(=O)Nc1cc(Cl)cc(NC(=O)c2cc(-c3ncc(N4CC(F)(F)C4)cc3F)cs2)c1` [Example 488] was tested, and the pEC50 was 6.55.
Work on `Cn1cc(C(=O)Nc2cc(Cl)cc(NS(C)(=O)=O)c2)cc1-c1ccc(N2CCC3(C2)CC3(F)F)cn1` (stereo not drawn) [Example 495] yielded a pEC50 of 6.85.

Same assay, conditions: Homo sapiens, HCT-116, read-out: DHX9 Cellular Target Engagement EC50 (μM)
`Cn1cc(C(=O)Nc2cc(Cl)cc(NS(C)(=O)=O)c2)cc1-c1ncc(N2CC[Si](C)(C)CC2)cc1F` [Example 470] was tested, and the EC50 was 0.62 µM.
`Cc1sc(C(=O)Nc2cc(Cl)cc(NS(C)(=O)=O)c2)cc1-c1ncc(N2CC[Si](C)(C)CC2)cc1F` [Example 473] was tested, and the EC50 was 0.426 µM.

What follows are compounds tested on circBRIP1 in HCT116 cells (assay: DHX9 circBRIP1 cellular target engagement SYBR Green assay (qPCR)). Settings: Homo sapiens, HCT-116, circBRIP1, HCT116 cells; ^+ SyBr assay was used; read-out: DHX9 Cellular Target Engagement EC50.
Assay type: cell-based
`CS(=O)(=O)Nc1cc(Cl)cc(NC(=O)c2cc3c(s2)CCC3Oc2cccnc2)c1` (stereo not drawn) [Example 687] was tested, and the pEC50 was 5.45.
`CS(=O)(=O)Nc1cc(Cl)cc(NC(=O)c2cc(-c3ccc(F)cn3)n(CCO)c2)c1` [Example 689] showed a pEC50 of 6.47.
With `CS(=O)(=O)Nc1cc(Cl)cc(NC(=O)c2cnn(-c3ncc(N4CC5(COC5)C4)cc3O)c2)c1` [Example 691] the pEC50 was 6.54.
Compound `Cc1sc(C(=O)Nc2cc(Cl)cc(NS(C)(=O)=O)c2)cc1-c1cn(C2CCOCC2)nn1` [Example 692] has a pEC50 of 6.85.
Compound `CCOc1cnc(-n2cc(C(=O)Nc3cc(Cl)cc(NS(C)(=O)=O)c3)cc2C(F)(F)F)nc1` [Example 693] has a pEC50 of 6.07.
Compound `Cc1sc(C(=O)Nc2cc(Cl)cc(NS(C)(=O)=O)c2)cc1-c1nccn1CCc1ccccc1` [Example 698] has a pEC50 of 5.60.
In the case of `Cc1sc(C(=O)Nc2cc(Cl)cc(NS(C)(=O)=O)c2)cc1-c1ncc(F)cc1-c1cnco1` [Example 705], the pEC50 was 6.17.
For `CS(=O)(=O)Nc1cc(Cl)cc(NC(=O)c2cc(Cl)n(-c3ncc(F)cn3)c2)c1` [Example 709], the pEC50 was 5.91.
Compound `CN(C)C(=O)c1cccc(OCc2cccc(F)c2)c1-n1cc(C(=O)Nc2cc(Cl)cc(NS(C)(=O)=O)c2)cn1` [Example 717] has a pEC50 of less than 5.00.
`CS(=O)(=O)Nc1cc(Cl)cc(NC(=O)c2cnn(-c3ncc(F)cc3OCc3cnco3)c2)c1` [Example 719] showed a pEC50 of 5.64.
For `CS(=O)(=O)Nc1cc(Cl)cc(NC(=O)c2cnn(-c3c(F)cccc3OCc3cnco3)c2)c1` [Example 721], the pEC50 was 5.80.
`CS(=O)(=O)Nc1cc(Cl)cc(NC(=O)c2cc(C(=O)N3CCOCC3)n(-c3ccccn3)c2)c1` [Example 731] was tested, and the pEC50 was less than 5.00.
